Assay results reported in ChEMBL document CHEMBL4507268 (2021).

Tests used:
[1] = molecular target: D(4) dopamine receptor (Homo sapiens) (UniProt P21917); conditions: Compound concentration 10.0 uM
[2] = molecular target: Dual specificity mitogen-activated protein kinase kinase 1 (Homo sapiens) (UniProt Q02750); conditions: Compound concentration 1000.0 nM
[3] = molecular target: Dual specificity testis-specific protein kinase 1 (Homo sapiens) (UniProt Q15569); conditions: Compound concentration 1000.0 nM
[4] = molecular target: Muscarinic acetylcholine receptor M5 (Homo sapiens) (UniProt P08912); conditions: Compound concentration 10.0 uM
[5] = molecular target: 3-phosphoinositide-dependent protein kinase 1 (Homo sapiens) (UniProt O15530); conditions: Compound concentration 1000.0 nM
[6] = test system: Tyrosine-protein kinase ABL1 (Homo sapiens), P00519 [F317L]; conditions: Compound concentration 1000.0 nM
[7] = molecular target: Maternal embryonic leucine zipper kinase (Homo sapiens) (UniProt Q14680); conditions: Compound concentration 1000.0 nM
[8] = molecular target: Macrophage-stimulating protein receptor (Homo sapiens) (UniProt Q04912); conditions: Compound concentration 1000.0 nM
[9] = molecular target: Serine/threonine-protein kinase VRK2 (Homo sapiens) (UniProt Q86Y07); conditions: Compound concentration 1000.0 nM
[10] = molecular target: Serine/threonine-protein kinase LATS2 (Homo sapiens) (UniProt Q9NRM7); conditions: Compound concentration 1000.0 nM
[11] = molecular target: Casein kinase I isoform gamma-1 (Homo sapiens) (UniProt Q9HCP0); conditions: Compound concentration 1000.0 nM
[12] = molecular target: Tyrosine-protein kinase ABL1 (Homo sapiens) (UniProt P00519); conditions: Compound concentration 1000.0 nM
[13] = molecular target: T1, Activin receptor type-1B (Homo sapiens) (UniProt P36896); conditions: Compound concentration 1000.0 nM
T1 sequence (whole entry): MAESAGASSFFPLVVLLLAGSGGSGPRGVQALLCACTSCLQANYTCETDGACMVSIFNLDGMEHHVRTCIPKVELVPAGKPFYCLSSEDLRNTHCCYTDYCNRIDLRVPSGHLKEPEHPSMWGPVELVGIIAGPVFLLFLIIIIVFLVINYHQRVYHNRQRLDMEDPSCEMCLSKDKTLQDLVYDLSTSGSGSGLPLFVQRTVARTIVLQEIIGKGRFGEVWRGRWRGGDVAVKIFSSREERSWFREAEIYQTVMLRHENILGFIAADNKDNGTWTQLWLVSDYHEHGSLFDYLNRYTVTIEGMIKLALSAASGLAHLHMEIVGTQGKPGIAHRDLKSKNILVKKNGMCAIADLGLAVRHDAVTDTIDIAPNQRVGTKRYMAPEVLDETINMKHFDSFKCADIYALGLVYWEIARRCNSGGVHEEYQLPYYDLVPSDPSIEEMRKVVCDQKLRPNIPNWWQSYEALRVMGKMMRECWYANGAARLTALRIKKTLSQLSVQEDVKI

[14] = molecular target: T2, Serine/threonine-protein kinase tousled-like 1 (Homo sapiens) (UniProt Q9UKI8); conditions: Compound concentration 1000.0 nM
T2 sequence (whole entry): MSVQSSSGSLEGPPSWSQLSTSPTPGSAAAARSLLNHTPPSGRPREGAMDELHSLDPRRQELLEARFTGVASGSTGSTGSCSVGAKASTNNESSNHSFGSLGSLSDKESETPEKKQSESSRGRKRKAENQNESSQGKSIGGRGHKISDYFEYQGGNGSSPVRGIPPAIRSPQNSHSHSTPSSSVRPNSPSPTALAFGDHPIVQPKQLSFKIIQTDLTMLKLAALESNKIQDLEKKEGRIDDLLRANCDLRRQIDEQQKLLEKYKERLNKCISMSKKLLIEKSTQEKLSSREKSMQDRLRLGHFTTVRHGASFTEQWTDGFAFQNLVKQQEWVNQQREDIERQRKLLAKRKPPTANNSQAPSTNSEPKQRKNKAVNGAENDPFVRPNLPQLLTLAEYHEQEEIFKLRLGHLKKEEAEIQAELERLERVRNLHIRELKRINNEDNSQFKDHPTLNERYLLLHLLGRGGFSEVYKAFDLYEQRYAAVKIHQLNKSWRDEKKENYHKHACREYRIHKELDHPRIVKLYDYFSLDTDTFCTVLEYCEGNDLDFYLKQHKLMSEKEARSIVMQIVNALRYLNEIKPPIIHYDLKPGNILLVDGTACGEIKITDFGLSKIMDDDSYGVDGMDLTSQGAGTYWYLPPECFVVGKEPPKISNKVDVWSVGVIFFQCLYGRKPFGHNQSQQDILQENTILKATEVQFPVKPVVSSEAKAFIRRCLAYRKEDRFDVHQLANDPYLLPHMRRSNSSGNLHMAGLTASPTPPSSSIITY

[15] = molecular target: Cyclin-dependent kinase 11B (Homo sapiens) (UniProt P21127); conditions: Compound concentration 1000.0 nM
[16] = test system: Receptor-type tyrosine-protein kinase FLT3 (Homo sapiens), P36888 [UNDEFINED MUTATION]; conditions: Compound concentration 1000.0 nM
[17] = test system: Mast/stem cell growth factor receptor Kit (Homo sapiens), P10721 [A829P]; conditions: Compound concentration 1000.0 nM

Serine/threonine-protein kinase VRK2 (Homo sapiens), sequence (Q86Y07 whole entry): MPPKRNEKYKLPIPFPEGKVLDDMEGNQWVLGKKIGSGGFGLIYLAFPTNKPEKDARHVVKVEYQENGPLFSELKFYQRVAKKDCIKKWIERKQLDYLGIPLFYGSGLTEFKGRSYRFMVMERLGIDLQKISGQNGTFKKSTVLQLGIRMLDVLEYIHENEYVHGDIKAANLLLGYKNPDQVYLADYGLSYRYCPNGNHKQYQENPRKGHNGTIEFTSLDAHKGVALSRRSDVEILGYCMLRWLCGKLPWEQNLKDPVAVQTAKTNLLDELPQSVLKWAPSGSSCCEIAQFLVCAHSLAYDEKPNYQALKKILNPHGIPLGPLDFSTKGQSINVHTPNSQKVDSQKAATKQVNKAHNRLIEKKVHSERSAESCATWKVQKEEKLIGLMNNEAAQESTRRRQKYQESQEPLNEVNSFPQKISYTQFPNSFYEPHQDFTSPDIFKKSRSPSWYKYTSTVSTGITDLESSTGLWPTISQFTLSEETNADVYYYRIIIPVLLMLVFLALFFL
D(4) dopamine receptor (Homo sapiens), sequence (P21917 whole entry): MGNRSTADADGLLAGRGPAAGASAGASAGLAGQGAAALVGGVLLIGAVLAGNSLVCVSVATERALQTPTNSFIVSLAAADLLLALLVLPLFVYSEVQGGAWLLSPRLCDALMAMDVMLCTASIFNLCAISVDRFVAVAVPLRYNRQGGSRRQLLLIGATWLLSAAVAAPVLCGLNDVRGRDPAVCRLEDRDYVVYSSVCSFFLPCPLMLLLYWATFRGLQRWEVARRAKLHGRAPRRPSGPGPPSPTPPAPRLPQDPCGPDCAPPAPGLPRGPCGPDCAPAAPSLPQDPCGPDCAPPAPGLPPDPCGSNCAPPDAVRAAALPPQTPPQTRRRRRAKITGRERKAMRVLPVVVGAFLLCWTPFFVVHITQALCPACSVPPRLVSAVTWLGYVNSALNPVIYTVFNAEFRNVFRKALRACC
Dual specificity mitogen-activated protein kinase kinase 1 (Homo sapiens), sequence (Q02750 whole entry): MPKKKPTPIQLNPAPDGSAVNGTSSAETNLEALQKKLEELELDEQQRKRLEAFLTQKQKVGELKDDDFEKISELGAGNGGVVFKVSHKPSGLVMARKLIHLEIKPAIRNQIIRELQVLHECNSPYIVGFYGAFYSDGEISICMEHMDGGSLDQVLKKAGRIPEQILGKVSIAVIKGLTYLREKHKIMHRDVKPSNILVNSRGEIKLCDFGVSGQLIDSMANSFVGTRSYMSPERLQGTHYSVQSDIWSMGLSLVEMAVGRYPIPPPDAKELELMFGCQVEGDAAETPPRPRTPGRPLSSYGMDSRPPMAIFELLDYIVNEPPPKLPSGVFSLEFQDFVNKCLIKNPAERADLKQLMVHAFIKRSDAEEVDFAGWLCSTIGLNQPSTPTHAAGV
Muscarinic acetylcholine receptor M5 (Homo sapiens), sequence (P08912 whole entry): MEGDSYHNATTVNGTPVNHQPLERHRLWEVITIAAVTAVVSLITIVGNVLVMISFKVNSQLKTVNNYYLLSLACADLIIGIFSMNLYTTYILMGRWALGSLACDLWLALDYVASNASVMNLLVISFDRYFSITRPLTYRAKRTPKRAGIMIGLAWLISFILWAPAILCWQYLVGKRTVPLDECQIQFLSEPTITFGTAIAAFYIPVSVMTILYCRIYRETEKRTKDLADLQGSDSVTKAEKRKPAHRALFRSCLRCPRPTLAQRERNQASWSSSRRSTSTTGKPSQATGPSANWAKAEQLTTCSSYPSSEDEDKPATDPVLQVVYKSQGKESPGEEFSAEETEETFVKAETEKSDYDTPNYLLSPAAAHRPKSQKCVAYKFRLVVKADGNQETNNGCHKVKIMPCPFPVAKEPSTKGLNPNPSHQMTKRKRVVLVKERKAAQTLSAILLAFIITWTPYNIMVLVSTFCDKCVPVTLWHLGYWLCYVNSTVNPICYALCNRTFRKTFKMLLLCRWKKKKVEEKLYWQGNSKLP
3-phosphoinositide-dependent protein kinase 1 (Homo sapiens), sequence (O15530 whole entry): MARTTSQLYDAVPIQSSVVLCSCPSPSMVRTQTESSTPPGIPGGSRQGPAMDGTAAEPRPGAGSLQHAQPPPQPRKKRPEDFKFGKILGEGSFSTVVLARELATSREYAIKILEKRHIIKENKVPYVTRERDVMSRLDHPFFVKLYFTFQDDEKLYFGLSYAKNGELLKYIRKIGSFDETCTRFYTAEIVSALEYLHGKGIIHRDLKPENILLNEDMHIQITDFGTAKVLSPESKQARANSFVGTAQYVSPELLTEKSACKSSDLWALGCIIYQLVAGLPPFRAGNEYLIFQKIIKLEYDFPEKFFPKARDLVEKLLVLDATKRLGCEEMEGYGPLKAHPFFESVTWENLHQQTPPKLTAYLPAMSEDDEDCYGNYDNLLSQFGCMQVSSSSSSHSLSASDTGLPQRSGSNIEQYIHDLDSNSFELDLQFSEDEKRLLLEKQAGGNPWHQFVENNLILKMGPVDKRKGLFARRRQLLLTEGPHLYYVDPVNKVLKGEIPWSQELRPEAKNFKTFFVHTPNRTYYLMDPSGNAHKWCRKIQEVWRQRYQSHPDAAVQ
Cyclin-dependent kinase 11B (Homo sapiens), sequence (P21127 whole entry): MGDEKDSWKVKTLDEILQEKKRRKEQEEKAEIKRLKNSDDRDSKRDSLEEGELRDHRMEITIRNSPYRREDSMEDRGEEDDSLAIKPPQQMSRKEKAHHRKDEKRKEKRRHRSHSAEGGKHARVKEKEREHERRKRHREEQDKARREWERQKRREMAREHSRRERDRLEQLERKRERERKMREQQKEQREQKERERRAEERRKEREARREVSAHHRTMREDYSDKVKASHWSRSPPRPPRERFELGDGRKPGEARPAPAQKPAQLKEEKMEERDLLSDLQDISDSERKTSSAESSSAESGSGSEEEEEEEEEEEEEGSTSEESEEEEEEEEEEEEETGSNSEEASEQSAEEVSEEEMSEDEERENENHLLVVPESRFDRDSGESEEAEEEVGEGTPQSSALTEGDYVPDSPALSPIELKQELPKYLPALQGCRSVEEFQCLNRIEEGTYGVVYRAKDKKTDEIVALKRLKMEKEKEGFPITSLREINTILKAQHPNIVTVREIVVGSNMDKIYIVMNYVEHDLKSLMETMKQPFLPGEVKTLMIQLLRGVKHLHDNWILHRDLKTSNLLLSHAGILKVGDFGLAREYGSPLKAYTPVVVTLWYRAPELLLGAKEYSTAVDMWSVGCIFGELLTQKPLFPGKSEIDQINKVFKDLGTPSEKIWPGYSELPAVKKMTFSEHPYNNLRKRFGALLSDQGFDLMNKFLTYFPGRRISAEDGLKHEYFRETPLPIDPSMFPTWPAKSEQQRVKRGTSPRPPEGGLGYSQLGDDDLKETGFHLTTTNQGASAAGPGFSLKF
Casein kinase I isoform gamma-1 (Homo sapiens), sequence (Q9HCP0 whole entry, looked up, canonical isoform): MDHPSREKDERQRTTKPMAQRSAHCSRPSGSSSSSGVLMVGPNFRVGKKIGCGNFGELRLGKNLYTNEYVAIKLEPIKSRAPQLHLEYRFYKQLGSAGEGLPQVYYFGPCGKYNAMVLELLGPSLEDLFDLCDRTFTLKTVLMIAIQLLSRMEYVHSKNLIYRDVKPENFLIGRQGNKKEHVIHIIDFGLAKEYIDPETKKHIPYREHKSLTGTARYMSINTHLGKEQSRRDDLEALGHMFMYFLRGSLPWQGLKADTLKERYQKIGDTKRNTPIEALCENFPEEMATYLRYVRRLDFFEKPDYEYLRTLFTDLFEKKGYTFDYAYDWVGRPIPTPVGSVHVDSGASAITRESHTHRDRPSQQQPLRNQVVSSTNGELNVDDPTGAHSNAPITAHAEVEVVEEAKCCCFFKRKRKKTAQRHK
Serine/threonine-protein kinase LATS2 (Homo sapiens), sequence (Q9NRM7 whole entry, canonical isoform): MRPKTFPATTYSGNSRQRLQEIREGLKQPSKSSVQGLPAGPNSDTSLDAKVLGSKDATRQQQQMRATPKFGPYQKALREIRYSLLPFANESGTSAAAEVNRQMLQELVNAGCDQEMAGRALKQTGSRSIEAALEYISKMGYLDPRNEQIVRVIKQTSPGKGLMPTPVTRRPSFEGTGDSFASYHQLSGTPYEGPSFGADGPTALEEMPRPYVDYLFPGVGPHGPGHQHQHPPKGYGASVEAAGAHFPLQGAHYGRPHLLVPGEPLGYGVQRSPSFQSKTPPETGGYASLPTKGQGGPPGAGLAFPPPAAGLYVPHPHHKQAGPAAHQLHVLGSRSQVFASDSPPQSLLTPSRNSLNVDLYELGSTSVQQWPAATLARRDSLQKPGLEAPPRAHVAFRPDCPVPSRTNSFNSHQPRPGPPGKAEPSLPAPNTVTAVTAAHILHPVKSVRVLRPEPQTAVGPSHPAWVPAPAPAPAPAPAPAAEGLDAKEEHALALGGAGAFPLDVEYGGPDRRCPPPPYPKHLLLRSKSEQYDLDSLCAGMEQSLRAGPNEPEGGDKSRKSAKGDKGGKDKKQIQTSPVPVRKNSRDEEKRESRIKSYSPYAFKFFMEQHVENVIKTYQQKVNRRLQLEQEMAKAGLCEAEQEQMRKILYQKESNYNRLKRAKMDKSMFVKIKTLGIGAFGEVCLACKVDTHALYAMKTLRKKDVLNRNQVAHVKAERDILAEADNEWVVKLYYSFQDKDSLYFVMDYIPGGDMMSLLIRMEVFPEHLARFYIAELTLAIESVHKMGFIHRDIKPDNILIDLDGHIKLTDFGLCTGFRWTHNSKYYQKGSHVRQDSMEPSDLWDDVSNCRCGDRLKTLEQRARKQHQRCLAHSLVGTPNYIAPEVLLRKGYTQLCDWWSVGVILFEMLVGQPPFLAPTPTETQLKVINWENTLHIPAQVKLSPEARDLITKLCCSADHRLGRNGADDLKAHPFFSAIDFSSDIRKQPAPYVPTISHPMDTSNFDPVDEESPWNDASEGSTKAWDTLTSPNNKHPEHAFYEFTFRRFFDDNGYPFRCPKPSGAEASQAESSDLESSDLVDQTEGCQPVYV

Cc1nc(C2CCN(C(=O)c3ccc(OC(F)(F)F)cc3N)CC2)c2ncc(N3CCN(C)CC3)cc2n1 [BAY-693]
inactive: inhibition [1] 1.98% | residual activity [2] 85% | residual activity [3] 100% | inhibition [4] -3.81% | residual activity [5] 93% | residual activity [6] 96% | residual activity [7] 93% | residual activity [8] 82% | residual activity [9] 100% | residual activity [10] 100% | residual activity [11] 100% | residual activity [12] 92% | residual activity [13] 86% | residual activity [14] 100% | residual activity [15] 87% | residual activity [16] 84% | residual activity [17] 86%

CN1CCN(c2cnc3c(C4CCN(C(=O)c5ccc(OC(F)(F)F)cc5N)CC4)ncnc3c2)CC1 [BAY-885]
inactive: inhibition [1] 12.7% | residual activity [2] 95% | residual activity [3] 96% | inhibition [4] 2.02% | residual activity [5] 85% | residual activity [6] 100% | residual activity [7] 85% | residual activity [8] 90% | residual activity [9] 100% | residual activity [10] 100% | residual activity [11] 100% | residual activity [12] 91% | residual activity [13] 79% | residual activity [14] 100% | residual activity [15] 82% | residual activity [16] 100% | residual activity [17] 100%
